The nature of the data set: solvent given as SMILES.

Data on 46 compounds can be found in the Deep4Chem optical property database.

On to `Cc1ccc2c(c1)C1(c3ccccc3Oc3ccccc31)c1cc(C)ccc1N2c1ccc(-c2ncccn2)cc1`, for which the emission maximum by setting is: (in Cc1ccccc1) 454 nm; (in O=P(c1ccccc1)(c1ccccc1)c1ccc2oc3ccc(P(=O)(c4ccccc4)c4ccccc4)cc3c2c1) 458 nm.
For `F[B-]1(F)N2C(=Nc3cccc4cccc2c34)c2cccc[n+]21`, the emission maximum was 413 nm (in CC#N), 383 nm (in CO), 498 nm (in CS(C)=O) and 384 nm (in Cc1ccccc1).
`COc1c(-c2ccc(N(C)C)cc2)oc2ccccc2c1=O` displayed an emission maximum (in C1CCCCC1) of 413.89 nm, an emission maximum (in CC#N) of 490.48 nm and an emission maximum (in CCOC(C)=O) of 468.65 nm.
For the setting “in C1CCOC1”, `FC(F)(F)c1ccc(/C=C2\C=C(c3ccccc3)C=C2c2ccccc2)cc1` returned an emission maximum of 516 nm.
Where the note is “in O”, `O=c1ccc2ccccc2o1` came in with an emission maximum of 385 nm.
As for `COCCC1(CCOC)c2cc(-c3ccc(OC)cc3)ccc2-c2ccc(-c3ccc(OC)cc3)cc21`, the emission maximum (in C1CCCCC1) is given as 371 nm.
For `CCCCC1(c2ccccc2)Nc2c(-c3ccc(N(c4ccccc4)c4ccccc4)cc3)ccc(-c3ccc(N(c4ccccc4)c4ccccc4)cc3)c2N=C1c1ccccc1` (stereo not given), the emission maximum is, setting by setting: (in C1CCOC1) 554 nm; (in CC#N) 567 nm; (in CCCCCC) 521 nm; (in CN(C)C=O) 578 nm; (in Cc1ccccc1) 533 nm; (in ClC(Cl)Cl) 547 nm.
As to `COC1=C/C(=C\C=C2C=CN(Cc3ccc(Br)cc3)C=C2)C=CC1=O`, the emission maximum is, setting by setting: (in CC#N) 665 nm; (in CC(C)=O) 670 nm; (in CC(C)CO) 642 nm; (in CC(C)O) 641 nm; (in CCC#N) 665 nm; (in CCCCCCO) 645 nm. The emission maximum is, setting by setting: (in CCCCCO) 643 nm; (in CCCCO) 640 nm; (in CCCO) 639 nm; (in CCO) 638 nm; (in CN(C)C=O) 682 nm; (in CN(C)P(=O)(N(C)C)N(C)C) 670 nm. The compound also gave an emission maximum (in CO) of 636 nm and an emission maximum (in CS(C)=O) of 669 nm.
For the compound `CCOC(=O)C1=CNC=C(C(=O)OCC)C1c1ccccc1`, the emission maximum is 412 nm (in C1CCOC1) and 423 nm (in CO).
On to `CC(C)(C)c1cc(-c2ccc(-c3cc(C(C)(C)C)cc(C(C)(C)C)c3)cc2)cc(C(C)(C)C)c1`, for which, under “in C1COCCO1”, the emission maximum was 349 nm.
`c1ccc([B-]23NC(C4CCCCC4)=Nc4cccc([n+]42)N=C(C2CCCCC2)N3)cc1` had an emission maximum (in ClCCl) of 456 nm.
As for `CC1=[N+]2C(=C(Oc3cc(C)c4c(c3)CC[C@@](C)(CCC[C@H](C)CCC[C@H](C)CCCC(C)C)O4)c3ccc(C)n3[B-]2(F)F)C=C1c1cc2n(c1)[B-](F)(F)[N+]1=CC=CC1=C2c1c(C)cc(C)cc1C`, the emission maximum is 632 nm (in C1CCCCC1) and 662 nm (in CCOC(C)=O).
In the case of `CCCCCCC1(CCCCCC)c2cc(-c3nc(-c4ccc5c(c4)C(CCCCCC)(CCCCCC)c4cc(N6c7ccccc7Sc7ccccc76)ccc4-5)nc(-c4ccc5c(c4)C(CCCCCC)(CCCCCC)c4cc(N6c7ccccc7Sc7ccccc76)ccc4-5)n3)ccc2-c2ccc(N3c4ccccc4Sc4ccccc43)cc21`, the emission maximum (in C1CCOC1) was 626 nm, the emission maximum (in CCCCCC) is recorded as 462 nm, the emission maximum (in Cc1ccccc1) is recorded as 529 nm and the emission maximum (in ClCCl) was found to be 650 nm.
Where the note is “in ClCCl”, `C(=C\c1cccc2ccccc12)/c1ncc(-c2ccccc2)o1` had an emission maximum of 440 nm.
The compound `Cc1nc2cc3c4c(cccc4c2o1)C(=O)OC3=O` displayed an emission maximum (in CCO) of 412 nm.
In turn, `F[B-]1(F)OC(/C=C/c2ccccc2)=CC(c2ccccc2)=[O+]1` registered an emission maximum (in ClCCl) of 443 nm.
In the case of `CCCCC(CC)COc1ccc2nc(-c3ccc(-c4ccc(OC)cc4)s3)sc2c1` (stereo not given), for the setting “in ClCCl”, the emission maximum was determined as 434 nm.
Consider `O=c1oc2cc3ccccc3cc2nc1-c1ccccc1`, for which the emission maximum by setting is: (in CC#N) 538 nm; (in CCCCCC) 500 nm; (in CO) 548 nm; (in c1ccccc1) 514 nm.
Regarding `CC(C)(C)c1ccc2c(c1)B1c3cc(C(C)(C)C)ccc3Oc3cc(N4c5ccccc5C(C)(C)c5ccccc54)cc(c31)O2`, the emission maximum (in Cc1ccccc1) was determined as 458 nm.
On to `c1ccc(-c2nc(-c3cc(-n4c5ccccc5c5ccccc54)cc(-n4c5ccccc5c5ccccc54)c3)nc(-c3cc(-n4c5ccccc5c5ccccc54)cc(-n4c5ccccc5c5ccccc54)c3)n2)cc1`, for which the emission maximum by setting is: (in C1CCCCC1) 438.78 nm; (in C1CCOC1) 595.92 nm; (in Cc1ccccc1) 504.9 nm.
For `Cc1ccc(/C=C/c2ccccc2-[n+]2noc([O-])c2C)cc1`, the emission maximum reads like this: (in C1CCCCC1) 348 nm; (in CC#N) 450 nm.
With `N#Cc1c(N2CCCCC2)cc(-c2ccc(Br)s2)c2c1CCc1ccccc1-2`, the emission maximum (in C1CCOC1) is reported as 493 nm.
For the setting “in C1CCOC1”, `c1cc2ccc1-c1ccc(cc1)-c1ccc(s1)-c1ccc(cc1)-c1ccc(cc1)-c1ccc(s1)-c1ccc(cc1)-c1ccc(cc1)-c1ccc(s1)-c1ccc(cc1)-c1ccc(cc1)-c1ccc-2s1` showed an emission maximum of 472 nm.
Compound `O=c1c2cc(S(=O)(=O)Cl)ccc2[nH]c2ccc(S(=O)(=O)Cl)cc12` had an emission maximum (in CS(C)=O) of 417 nm.
The compound `F[B-]1(F)Oc2ccccc2-c2c3c(c4c([n+]21)CCc1ccccc1-4)CCc1ccccc1-3` returned an emission maximum (in ClCCl) of 442 nm.
On to `COc1ccc2c3c([nH]c2c1)C(C)=NCC3`, for which the emission maximum reads like this: (in CC#N) 480 nm; (in CS(C)=O) 420 nm; (in O) 480 nm.
`CCCCCCN1C(=O)c2cccc3c(-c4cccs4)ccc(c23)C1=O` yielded an emission maximum (in ClC(Cl)Cl) of 465 nm.
Regarding `Nc1cccc2cccc(N)c12`, the emission maximum (in CC#N) was 413 nm, the emission maximum (in CO) is recorded as 427 nm, the emission maximum (in CS(C)=O) is 411 nm and the emission maximum (in Cc1ccccc1) is 403 nm.
For `COC(=O)/C=C/c1ccc2ccc3cccc4ccc1c2c34`, the emission maximum runs as follows: (in C1CCOC1) 425.5 nm; (in C1COCCO1) 422.5 nm; (in C=CC#N) 447.5 nm; (in CC#N) 450 nm; (in CC(C)=O) 438 nm; (in CCCCCC) 406.5 nm. The emission maximum by setting is: (in CCOC(C)=O) 423 nm; (in CO) 462.5 nm; (in Cc1ccccc1) 423 nm; (in ClCCl) 442 nm.
Compound `Cc1ccccc1C1=C2C=CC(=[N+](C)C)C=C2[Si](C)(C)c2cc(N(C)C)ccc21` registered an emission maximum (in O) of 660 nm.
Where the note is “in ClC(Cl)Cl”, `CCCCc1ccc(-n2c3c4cc(F)ccc4nc(-c4ccc(OC)cc4)c3c3c2c2c(-c4ccc(OC)cc4)nc4ccc(F)cc4c2n3-c2ccc(CCCC)cc2)cc1` yielded an emission maximum of 527 nm.
For the setting “in Cc1ccccc1”, `N#Cc1ccccc1N1c2ccccc2C(c2ccccc2)(c2ccccc2)c2ccccc21` returned an emission maximum of 441 nm.
For `Cc1cccc(C)c1Nc1ccc(/C=C/c2ccccc2)cc1`, the emission maximum is recorded as 424 nm (in CC#N) and 375 nm (in CCCCCC).
Consider `CCCCOc1c(OC)cc2cc(OC)c(OCCCC)c3c4c(OCCCC)c(OC)cc5cc(OC)c(OCCCC)c(c1c23)c54`, for which the emission maximum (in ClCCl) amounted to 474 nm.
`CCOC(=O)C1=C(C(=O)OCC)C2(c3ccccc3-c3ccccc32)[C@@H](c2ccc(Cl)cc2)C=C2c3cc(OC)c(OC)cc3CCN21` registered an emission maximum (in ClCCl) of 445 nm.
Compound `CC(C)c1cccc(C(C)C)c1N1C(=O)c2cccc3c(Oc4ccccc4)ccc(c23)C1=O` returned an emission maximum (in ClCCl) of 425 nm.
Where the note is “in CCOC(C)=O”, `c1cc2ccc3cc4[nH]ccc4c4ccc(c1)c2c34` had an emission maximum of 398 nm.
On to `COC(=O)C[C@H](Cc1c[nH]c2ccccc12)NC(=O)[C@H](CC(=O)N[C@@H](CC1=CCc2ccccc21)C(=O)OC)NC(=O)OC(C)(C)C`, for which the emission maximum is recorded as 332 nm (in CC#N), 326 nm (in CCOC(C)=O) and 337 nm (in CO).
On to `C/C=C/c1ccc(OC)cc1`, for which the emission maximum reads like this: (in CC#N) 330 nm; (in CCCCCC) 328 nm.
Regarding `FC(F)(F)c1ccccc1B1c2ccccc2Nc2ccccc21`, the emission maximum (in ClCCl) was 401 nm.
Compound `CC[Si](CC)(CC)Oc1cccc(O[Si](CC)(CC)CC)c1-c1c2ccccc2c(-c2c(O[Si](CC)(CC)CC)cccc2O[Si](CC)(CC)CC)c2ccccc12` registered an emission maximum (in C1CCCCC1) of 432 nm.
`CN1C(=CC2=C([S-])C(=Cc3sc4ccccc4[n+]3C)C2=O)C(C)(C)c2ccccc21` displayed an emission maximum (in ClC(Cl)Cl) of 676 nm.
In turn, `Cn1c2ccc(S(=O)(=O)Cl)cc2c(=O)c2cc(S(=O)(=O)Cl)ccc21` registered an emission maximum (in CS(C)=O) of 424 nm.
On to `CCCCN(c1ccccc1)c1ccc2c(c1)C(CC)(CC)c1cc(/C=C/c3ccc(/C=C(\C#N)C(=O)O)s3)ccc1-2`, for which the emission maximum runs as follows: (in C1CCOC1) 622 nm; (in C1COCCO1) 621 nm; (in CC#N) 518 nm; (in CC(C)=O) 576 nm; (in CCOC(C)=O) 590 nm; (in CN(C)C=O) 605 nm. This compound returned an emission maximum (in CS(C)=O) of 520 nm and an emission maximum (in ClCCl) of 595 nm.
For the compound `O=C(O)CCNc1cccc2ccccc12`, for the setting “in CCO”, the emission maximum was 417 nm.
Turning to `CC(C)(C)c1ccc(-c2sc3c(-c4ccc(C(C)(C)C)cc4)c4n(c3c2-c2ccc(C(C)(C)C)cc2)[B-](F)(F)[N+]2=Cc3c(-c5ccc(C(C)(C)C)cc5)c5sc(-c6ccc(C(C)(C)C)cc6)c(-c6ccc(C(C)(C)C)cc6)c5n3[B-](F)(F)[N+]2=C4)cc1`, the emission maximum (in CC#N) was found to be 627 nm; the emission maximum (in CCCCCC) came out at 626 nm; the emission maximum (in CN(C)C=O) amounted to 636 nm; the emission maximum (in Cc1ccccc1) came out at 632 nm; the emission maximum (in ClCCl) was 631 nm.
